Assay results published in patent publication US4698352A, “4-oxo-1,4-dihydronicotinic acid derivatives, salts thereof, and antibacterial agents containing the same” (Toyama Chemical Co., Ltd., priority 1982, dated 1987).
≈ marks a conversion by molar mass, not a printed value. Where two headings read alike, the source gives them in different places.

Assays:
Test in all cases: Antibacterial activity (MIC), agar dilution
Assay type in all cases: cell-based
E. coli NIHJ JC-2 = conditions: Escherichia coli, NIHJJC2, 20 h, E. coli NIHJ JC-2; 10^6 cells per ml; 37° C., 20 hours; read-out: MIC
Description: (§1) The amount of bacteria inoculated was 10^4 cells per plate (10^6 cells per ml).

E. coli TK-111 = conditions: Escherichia coli, TK111, 20 h, E. coli TK-111; 10^6 cells per ml; 37° C., 20 hours; read-out: MIC
Description: as §1

Ent. cloacae IID977 = conditions: Enterobacter cloacae, IID977, 20 h, Ent. cloacae IID977; 10^6 cells per ml; 37° C., 20 hours; read-out: MIC
Description: as §1

Kl. pneumoniae Y-41 = conditions: Klebsiella pneumoniae, Y41, 10^6 cells per ml, 37° C., 20 hours, read-out: MIC
Description: as §1

Kl. pneumoniae Y-50 = conditions: Klebsiella pneumoniae, Y50, 20 h, 10^6 cells per ml, 37° C., read-out: MIC
Description: as §1

Pro. mirabilis T-111 = conditions: Proteus mirabilis, 37° C.
Description: as §1

Pro. morganii T-216 = conditions: Morganella morganii, 37° C.
Description: as §1

Pro. vulgaris GN3027 = conditions: Proteus vulgaris, GN3027, 20 h, Pro. vulgaris GN3027; 10^6 cells per ml; 37° C., 20 hours; read-out: MIC
Description: as §1

Ps. aeruginosa IFO3445 = conditions: Pseudomonas aeruginosa; Ps. aeruginosa IFO3445; 10^6 cells per ml; 37° C., 20 hours; read-out: MIC
Description: as §1

Ps. aeruginosa S-68 = conditions: Pseudomonas aeruginosa
Description: as §1

St. aureus FDA209P = conditions: Staphylococcus aureus, FDA209P, 20 h
Description: as §1

E. coli TK-3* = conditions: Escherichia coli, 20 h, E. coli TK-3, penicillinase-producing; 10^6 cells per ml; read-out: MIC
Description: as §1
(§2) * Penicillinase-producing bacteria

Kl. pneumoniae Y-4* = conditions: Klebsiella pneumoniae, 20 h, Kl. pneumoniae Y-4, penicillinase-producing; 10^6 cells per ml; read-out: MIC
Description: as §1, §2

Ps. aeruginosa GN3379* = conditions: Pseudomonas aeruginosa, Ps. aeruginosa GN3379, penicillinase-producing, 10^6 cells per ml
Description: as §1, §2

St. aureus F-137* = conditions: Staphylococcus aureus, 20 h
Description: as §1, §2

E. coli GN5482** = conditions: Escherichia coli, 20 h; E. coli GN5482, cephalospolinase-producing; 10^6 cells per ml; read-out: MIC
Description: as §1
(§3) ** Cephalospolinase-producing bacteria

Pro. vulgaris GN76** = conditions: Proteus vulgaris
Description: as §1, §3

Ps. aeruginosa GN918** = conditions: Pseudomonas aeruginosa, Ps. aeruginosa GN918, cephalospolinase-producing, 10^6 cells per ml
Description: as §1, §3

Aci. antitratus A-6 = conditions: 20 h, Aci. antitratus A-6; 10^6 cells per ml; 37° C., 20 hours; read-out: MIC
Description: as §1

[1] = T111, 10^6 cells per ml, 20 hours, read-out: MIC
[2] = T216, 10^6 cells per ml, 20 hours, read-out: MIC
[3] = S68, Ps. aeruginosa S-68, 10^6 cells per ml, 37° C., 20 hours, read-out: MIC
[4] = 20 h, Pro. vulgaris GN76, cephalospolinase-producing, 10^6 cells per ml, read-out: MIC
[5] = St. aureus FDA209P, 10^6 cells per ml, 37° C., 20 hours, read-out: MIC
[6] = St. aureus F-137, penicillinase-producing, 10^6 cells per ml, read-out: MIC

Row | SMILES | MIC (E. coli NIHJ JC-2) [µg/mL] | MIC (E. coli TK-111) [µg/mL] | MIC (Ent. cloacae IID977) [µg/mL] | MIC (Kl. pneumoniae Y-41) [µg/mL] | MIC (Kl. pneumoniae Y-50) [µg/mL] | MIC (Pro. mirabilis T-111; [1]) [µg/mL] | MIC (Pro. morganii T-216; [2]) [µg/mL] | MIC (Pro. vulgaris GN3027) [µg/mL] | MIC (Ps. aeruginosa IFO3445) [µg/mL] | MIC (Ps. aeruginosa S-68; [3]) [µg/mL] | MIC (E. coli TK-3*) [µg/mL] | MIC (Kl. pneumoniae Y-4*) [µg/mL] | MIC (Ps. aeruginosa GN3379*; 20 h, read-out: MIC) [µg/mL] | MIC (E. coli GN5482**) [µg/mL] | MIC (Pro. vulgaris GN76**; [4]) [µg/mL] | MIC (Ps. aeruginosa GN918**; 20 h, read-out: MIC) [µg/mL] | MIC (Aci. antitratus A-6) [µg/mL] | MIC (St. aureus FDA209P; [5]) [µg/mL] | MIC (St. aureus F-137*; [6]) [µg/mL] | MIC (Pro. mirabilis T-111; T111, 20 h, 10^6 cells per ml) [µg/mL] | further results
1 | Cc1cc(F)ccc1-n1cc(C(=O)O)c(=O)cc1C1CC=CCC1 (stereo not drawn) | 6.25 (≈ 19.1 µM) | 1.56 (≈ 4.77 µM) | 12.5 (≈ 38.2 µM) | 25 (≈ 76.4 µM) | 3.13 (≈ 9.56 µM) | 25 (≈ 76.4 µM) | 12.5 (≈ 38.2 µM) | 0.39 (≈ 1.19 µM) | 100 (≈ 305 µM) | 50 (≈ 153 µM) | 12.5 (≈ 38.2 µM) | 25 (≈ 76.4 µM) | 100 (≈ 305 µM) | 0.78 (≈ 2.38 µM) | 6.25 (≈ 19.1 µM) | 12.5 (≈ 38.2 µM) | – | – | – | – | MIC (St. aureus FDA209P): 3.13 µg/mL (≈ 9.56 µM); MIC (St. aureus F-137*): 3.13 µg/mL (≈ 9.56 µM)
2 | O=C(O)c1cn(-c2ccc(O)cc2F)c(-c2ccc(N3CCCC3)cc2)cc1=O | 0.2 (≈ 0.507 µM) | ≤ 0.05 | 0.78 (≈ 1.98 µM) | 1.56 (≈ 3.96 µM) | 0.39 (≈ 0.989 µM) | 0.78 (≈ 1.98 µM) | 0.78 (≈ 1.98 µM) | 0.2 (≈ 0.507 µM) | 6.25 (≈ 15.8 µM) | – | – | 3.13 (≈ 7.94 µM) | – | ≤ 0.05 | 0.78 (≈ 1.98 µM) | 0.78 (≈ 1.98 µM) | ≤ 0.05 | ≤ 0.05 | ≤ 0.05 | – | MIC (Ps. aeruginosa S-68; S68, 20 h): 3.13 µg/mL (≈ 7.94 µM); MIC (Ps. aeruginosa GN3379*; GN3379, 20 h): 3.13 µg/mL (≈ 7.94 µM)
3 | Cc1nc2ccc(-c3cc(=O)c(C(=O)O)cn3-c3ccc(O)cc3)cc2s1 | 0.39 (≈ 1.03 µM) | 0.2 (≈ 0.529 µM) | 1.56 (≈ 4.12 µM) | 3.13 (≈ 8.27 µM) | 0.39 (≈ 1.03 µM) | – | – | 0.39 (≈ 1.03 µM) | 25 (≈ 66.1 µM) | 12.5 (≈ 33 µM) | 0.78 (≈ 2.06 µM) | 3.13 (≈ 8.27 µM) | 12.5 (≈ 33 µM) | ≤ 0.05 | 0.78 (≈ 2.06 µM) | 1.56 (≈ 4.12 µM) | – | 0.39 (≈ 1.03 µM) | 0.39 (≈ 1.03 µM) | 3.13 (≈ 8.27 µM) | MIC (Pro. morganii T-216; T216, 20 h, 10^6 cells per ml): 3.13 µg/mL (≈ 8.27 µM)
4 | Cc1nc2cc(-c3cc(=O)c(C(=O)O)cn3-c3ccc(O)cc3)ccc2s1 | 0.39 (≈ 1.03 µM) | 0.1 (≈ 0.264 µM) | 1.56 (≈ 4.12 µM) | 3.13 (≈ 8.27 µM) | 0.78 (≈ 2.06 µM) | – | – | 0.39 (≈ 1.03 µM) | 12.5 (≈ 33 µM) | 6.25 (≈ 16.5 µM) | 0.78 (≈ 2.06 µM) | 3.13 (≈ 8.27 µM) | 6.25 (≈ 16.5 µM) | ≤ 0.05 | 1.56 (≈ 4.12 µM) | 1.56 (≈ 4.12 µM) | – | 0.39 (≈ 1.03 µM) | 0.78 (≈ 2.06 µM) | 3.13 (≈ 8.27 µM) | MIC (Pro. morganii T-216; T216, 20 h, 10^6 cells per ml): 3.13 µg/mL (≈ 8.27 µM)
5 | COCOC(=O)c1cn(-c2ccc(O)cc2)c(-c2ccc(N(C)C)cc2)cc1=O | 0.39 (≈ 0.989 µM) | 0.2 (≈ 0.507 µM) | 1.56 (≈ 3.96 µM) | 3.13 (≈ 7.94 µM) | 0.78 (≈ 1.98 µM) | – | 1.56 (≈ 3.96 µM) | 0.39 (≈ 0.989 µM) | 6.25 (≈ 15.8 µM) | – | 1.56 (≈ 3.96 µM) | 3.13 (≈ 7.94 µM) | 6.25 (≈ 15.8 µM) | ≤ 0.05 | – | – | – | 0.39 (≈ 0.989 µM) | 0.39 (≈ 0.989 µM) | 3.13 (≈ 7.94 µM) | MIC (Ps. aeruginosa S-68; S68, 20 h): 3.13 µg/mL (≈ 7.94 µM); MIC (Pro. vulgaris GN76**; GN76, 20 h): 3.13 µg/mL (≈ 7.94 µM); MIC (Ps. aeruginosa GN918**; GN918, 20 h): 3.13 µg/mL (≈ 7.94 µM)
6 | O=C(O)c1cn(-c2ccc(O)cc2)c(-c2ccc3occc3c2)cc1=O | 0.39 (≈ 1.12 µM) | 0.2 (≈ 0.576 µM) | 0.78 (≈ 2.25 µM) | 1.56 (≈ 4.49 µM) | 0.39 (≈ 1.12 µM) | – | 0.78 (≈ 2.25 µM) | ≤ 0.05 | 12.5 (≈ 36 µM) | 6.25 (≈ 18 µM) | – | 3.13 (≈ 9.01 µM) | 6.25 (≈ 18 µM) | ≤ 0.05 | 0.78 (≈ 2.25 µM) | – | 0.78 (≈ 2.25 µM) | 0.2 (≈ 0.576 µM) | 0.39 (≈ 1.12 µM) | 3.13 (≈ 9.01 µM) | MIC (Ps. aeruginosa GN918**; GN918, 20 h): 1.56 µg/mL (≈ 4.49 µM)
